Source: PubChem BioAssay (NCI)
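Test compounds were applied to cells in 96-well plates for 48 hours at 5 doses. GI50 marks 50% less growth. TGI denotes the concentration required for complete inhibition of growth.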

Key:
Assay in all cases: NCI tumour cell line growth inhibition, 48 h
[1] = system: 786-0 renal
[2] = system: CCRF-CEM leukemia
[3] = system: EKVX NSCLC
[4] = system: HT29 colon
[5] = system: IGROV1 ovarian
[6] = system: K-562 leukemia
[7] = system: MOLT-4 leukemia
[8] = system: NCI/ADR-RES ovarian
[9] = system: OVCAR-4 ovarian
[10] = system: SR leukemia

SMILES	GI50 [1] [µM]	TGI [1] [µM]	GI50 [2] [µM]	TGI [2] [µM]	GI50 [3] [µM]	TGI [3] [µM]	GI50 [4] [µM]	TGI [4] [µM]	GI50 [5] [µM]	TGI [5] [µM]	GI50 [6] [µM]	TGI [6] [µM]	GI50 [7] [µM]	TGI [7] [µM]	GI50 [8] [µM]	TGI [8] [µM]	GI50 [9] [µM]	TGI [9] [µM]	GI50 [10] [µM]	TGI [10] [µM]
COc1cc2c3c(n(CCCCN)c(=O)c2cc1OC)-c1cc2c(cc1C3=O)OCO2	0.172	0.889	0.0913	3.75	0.744	3.57	0.586	25	1.14	5.08	0.431	2.17	0.114	2.95	2.34	11.2	0.719	4.66	0.115	0.417
NC(=O)c1ccc(I)c(N=O)c1	61.8	> 100	40.5	> 100	81.1	> 100	20.6	39.5	26.7	86.4			36.5	> 100	44.9	> 100	17.7	43.5	40.6	> 100
CNC(=O)c1cccc2cc(Oc3ccnc4cc(OCC5(N)CC5)c(OC)cc34)ccc12	2.82	10.1	4.78	29.7	14.6	34.5	6.73	21.1	7.63	28.2	3.55	16.7	3.49	21.6	12.7	31.9	2.89	21.8	2.29	10.6
COc1cc2oc3cc(=O)cc4oc(-c5ccccc5)cc(c2c2c1CCC(c1ccccc1)O2)c43 (centres undefined)		> 100		> 100		> 100		66.2		> 100		83.9		> 100		> 100		> 100		> 100
CC1OC(n2c3ccccc3c3c4c(c5c6ccccc6[nH]c5c32)C(=O)N(CCN[C@@H]2CCC[C@H]2N)C4=O)CC(O)C1O (some centres undefined)	2.35	9.9	1.25	6.27	1.8	8.35	1.33	5.46	1.87	9.68	0.85	2.76	0.747	4.74	> 50	> 50	1.72	7.06	0.439	3.94
O=S(=O)(Nc1ccc(Br)c(Cl)c1)c1ccc(-c2cnc(C3CC3)o2)cc1	0.574	17.9	0.411	> 45.9	2.07	21	0.356	5.23	0.577	14.8	0.323	> 100	0.688	> 50.4	0.43	6.86	2.67	21.9	0.38	> 49.4
COc1cccc(-n2nc(C)c3c(N/N=C(\C)c4ccncc4)ncnc32)c1	> 25	> 25	> 25	> 25	> 25	> 25	> 25	> 25	> 25	> 25	> 25	> 25	> 25	> 25	> 25	> 25	> 25	> 25	> 25	> 25
O=C1c2cccc(NCCN=Cc3cc([N+](=O)[O-])ccc3O)c2C(=O)c2c(NCCN=Cc3cc([N+](=O)[O-])ccc3O)cccc21	7.04	> 100	0.963	9.89	16.1	> 100	1.26	> 100	2.62	> 100	3.67	> 100	0.648	16.7	> 100	> 100	2.06	> 100	1.49	> 100
C[C@]12CCc3sc(NCCc4ccccc4)nc3C1=CC[C@@H]1[C@@H]2CC[C@]2(C)C(=O)CC[C@@H]12	2.82	9.61	2.63	40.4	90.1	> 100	2.2	8.11	2.6	6.18	2.89	> 100	2.58	> 100	2.31	7.52	3.93	> 100	3.06	> 100
O=C(Nc1ccncc1)C(=O)c1cn(Cc2ccc(Cl)cc2)c2ccccc12	0.0533	> 100	0.0331	> 100	0.261	> 100	0.0363	> 100	0.141	> 100	0.0265	34.8	0.064	> 100	0.0317	> 100	0.106	> 100	0.0298	> 100
CN[C@H](C#Cc1c(F)ccc2c1/C(=C/c1[nH]ccc1OC)C(=O)N2)CO	0.462	4.18	0.349	1.83			0.438	2.39	0.682	3.32	0.989	5.89	0.386	3.8	0.973	6.58	0.631	4.22	0.109	1.91
CC1CC2OC(=O)C(C)C2CC2(C)C(OC3OC(CO)C(O)C(O)C3O)OCCC12 (centres undefined)		> 100		> 100		> 100		> 100		> 100		> 100		> 100		> 100		> 100		> 100
COc1ccc(-c2nc(-c3ccccc3)c(-c3ccccc3)[nH]2)cc1OC1CCCC1	> 100	> 100	51.8	> 100			30.8	> 100	> 100	> 100	79.5	> 100	71.2	> 100	> 100	> 100	> 100	> 100	15	> 100
